Drawing on patent US8492310B2, “Herbicidal compositions containing benzoylpyrazole compounds” (priority 2008, dated 2013), this text covers inhibition for 4 molecules.

Holding throughout (assay type): in vivo
For assay [1], the system named is barnyardgrass (Echinochloa crus-qalli L.). Briefly: Foliar treatment pot test, visual growth inhibition rate, barnyardgrass (EC). The conditions noted are these: 4.0-5.0 leaf stage, read-out: Growth inhibition rate (%) of EC Measured value. From the text: (§1) When the herbicidal activity in a case where two active ingredients are combined, is larger than the simple sum of the respective herbicidal activities of the two active ingredients (the expected activity), it is called a synergistic effect. The activity expected by the combination of two active ingredients can be calculated as follows (Colby S. R., “Weed”, vol. 15, p. 20-22, 1967). E=α+β−(α×β÷100) where
(§2) Upland field soil was put into a 1/1,000,000 hectare pot, and seeds of various plants (barnyardgrass (Echinochloa crus-qalli L.), crabgrass (Digitaria sanguinalis L.), giant foxtail (Setaria faberi Herrm.), velvetleaf (Abutilon theophrasti MEDIC.) and prickly sida (Sida spinosa L.)) were sown. When the respective plants reached predetermined leaf stage, herbicidal compositions in predetermined amounts were diluted with water in an amount corresponding to 300 L/ha and applied for foliar treatment by a small sprayer.
(§3) Further, in accordance with the above Colby's formula, the growth inhibition rate (calculated value) was calculated. In Tables, with respect to the compound Q, Compound Nos. in Table 1 are described, and with respect to other herbicidal compounds, common names are described. Further, in Tables, barnyardgrass is represented by “EC”, crabgrass by “DS”, giant foxtail by “SF”, velvetleaf by “AT”, and prickly sida by “SS”.

In assay [2] the test system is crabgrass (Digitaria sanguinalis L.). Briefly: Foliar treatment pot test, visual growth inhibition rate, crabgrass (DS). The note with it: Digitaria sanguinalis, foliar, read-out: Growth inhibition rate (%) of DS Measured value.
Text: as §1, §2, §3

Assay [3] concerns velvetleaf (Abutilon theophrasti MEDIC.). Briefly: Foliar treatment pot test, visual growth inhibition rate, velvetleaf (AT). The conditions noted are these: Abutilon theophrasti, foliar, read-out: Growth inhibition rate (%) of AT Measured value.
Text: as §1, §2, §3

The subject of assay [4] is prickly sida (Sida spinosa L.). Briefly: Foliar treatment pot test, visual growth inhibition rate, prickly sida (SS). The conditions noted are these: Sida spinosa, foliar, read-out: Growth inhibition rate (%) of SS Measured value; for inhibition at 15 g/ha: 1.5-2.4 leaf stage.
Text: as §1, §2, §3

[5] abbreviates: 480 h, 3.7-4.0 leaf stage, 20 DAT.
Where [6] appears, read: 480 h, 4.0-4.2 leaf stage, 20 DAT.
Where [7] appears, read: 480 h, 4.5-5.2 leaf stage, 20 DAT.
Where [8] appears, read: 552 h, 4.5-5.3 leaf stage, 23 DAT.
Where [9] appears, read: 480 h, 4.2-4.3 leaf stage, 20 DAT.
[10] abbreviates: 552 h, 3.0-4.2 leaf stage, 23 DAT.
The mark [11] stands for this setting: 528 h, 3.3-3.8 leaf stage, 22 DAT.

Molecules are shown by their SMILES. Where two headings read alike, the source gives them in different places.

For `CS(=O)(=O)c1ccc(C(=O)C2C(=O)CCCC2=O)c([N+](=O)[O-])c1` [Mesotrione], the inhibition at 15 g/ha turned out to be 5% in assay [1] (504 h, 21 DAT, 15 g/ha) and 88% in assay [3] (576 h, 3.2-4.1 leaf stage, 24 DAT). Further, the inhibition at 25 g/ha in assay [2] (setting [5]) is 55%; in assay [3] (setting [6]), 23%; in assay [3] (480 h, 4.1-4.2 leaf stage, 20 DAT), 94%. Moreover, the inhibition at 50 g/ha in assay [2] (setting [5]) was determined as 83%; in assay [3] (setting [6]), 35%. Also, the inhibition at 12.5 g/ha in assay [2] (480 h, 5.1-5.2 leaf stage, 20 DAT, 12.5 g/ha) was 80%; in assay [3] (480 h, 4.1-4.2 leaf stage, 20 DAT, 12.5 g/ha) it was 75%.

As for `COc1c(Cl)ccc(Cl)c1C(=O)O` [Dicamba, dicamba], the inhibition at 200 g/ha in assay [1] (336 h, 14 DAT, 200 g/ha) turned out to be 0%; in assay [2] (504 h, 5.0-5.5 leaf stage, 21 DAT, 200 g/ha), 0%. The inhibition at 100 g/ha came to 0% in assay [2] (312 h, 4.4-5.0 leaf stage, 13 DAT); 0% in assay [2] (setting [7]); 35% in assay [3] (312 h, 3.3-4.2 leaf stage, 13 DAT); 43% in assay [3] (setting [9]); 55% in assay [3] (504 h, 3.5-4.3 leaf stage, 21 DAT). Besides, the inhibition at 25 g/ha in assay [2] (setting [7]) amounted to 0%; in assay [3] (setting [9]) it was 25%. Moreover, the inhibition at 50 g/ha was determined as 0% in assay [2] (setting [7]) and 35% in assay [3] (setting [9]). The inhibition at 60 g/ha in assay [2] (setting [8]) is 55%; in assay [3] (setting [10]), 0%. Further, the inhibition at 120 g/ha turned out to be 75% in assay [2] (setting [8]) and 0% in assay [3] (setting [10]).

On to `COc1cc(OC)nc(NC(=O)NS(=O)(=O)c2ncccc2C(=O)N(C)C)n1` [Nicosulfuron, nicosulfuron], for which the inhibition at 5 g/ha was 15% in assay [2] (336 h, 3.5-4.3 leaf stage, 14 DAT, 5 g/ha); 10% in assay [3] (480 h, 3.1-3.4 leaf stage, 20 DAT, 5 g/ha); 0% in assay [4] (504 h, 2.1 to 3.1 leaf stage, 21 DAT, 5 g/ha). For the same molecule, the inhibition at 10 g/ha in assay [2] (504 h, 3.5 to 4.3 leaf stage, 21 DAT, 10 g/ha) amounted to 30%; in assay [3] (528 h, 4.0-4.4 leaf stage, 22 DAT, 10 g/ha), 40%; in assay [4] (504 h, 2.1 to 3.1 leaf stage, 21 DAT, 10 g/ha) it was 10%. In addition, the inhibition at 20 g/ha is 50% in assay [2] (504 h, 4.5-5.1 leaf stage, 21 DAT, 20 g/ha) and 40% in assay [4] (504 h, 2.1 to 3.1 leaf stage, 21 DAT, 20 g/ha). In addition, the inhibition at 80 g/ha came to 94% in assay [2] (504 h, 4.5-5.1 leaf stage, 21 DAT, 80 g/ha) and 83% in assay [3] (504 h, 4.0-4.5 leaf stage, 21 DAT, 80 g/ha). Further, the inhibition at 7 g/ha in assay [3] (504 h, 3.8-4.4 leaf stage, 21 DAT) was found to be 30%; in assay [3] (setting [11]) it was 45%. Besides, the inhibition at 40 g/ha in assay [3] (504 h, 4.0-4.5 leaf stage, 21 DAT, 40 g/ha) came to 65%. Besides, the inhibition at 60 g/ha in assay [3] (504 h, 4.0-4.5 leaf stage, 21 DAT) came to 70%. For the same molecule, the inhibition at 15 g/ha in assay [3] (setting [11]) stood at 60%; in assay [4] (480 h, 20 DAT) it was 45%; in assay [4] (504 h, 21 DAT), 45%. For the same molecule, the inhibition at 30 g/ha in assay [3] (setting [11]) stood at 70%; in assay [4] (504 h, 2.1 to 3.1 leaf stage, 21 DAT, 30 g/ha), 50%. In addition, the inhibition at […] in assay [4] (504 h, 2.1 to 3.1 leaf stage, 21 DAT, 2.5 g/ha) worked out at 0%. Moreover, the inhibition at 50 g/ha in assay [4] (504 h, 2.1 to 3.1 leaf stage, 21 DAT) is 70%.

As for `CCCCCCCC(=O)Oc1c(Br)cc(C#N)cc1Br` [Bromoxynil-octanoate, bromoxynil-octanoate], the inhibition at 63 g/ha came out at 0% in assay [2] (336 h, 4.0-5.0 leaf stage, 14 DAT); 0% in assay [2] (504 h, 4.0-5.1 leaf stage, 21 DAT); 10% in assay [3] (504 h, 3.0-3.5 leaf stage, 21 DAT, 63 g/ha). In assay [2] (528 h, 3.1-4.0 leaf stage, 22 DAT, 77 g/ha), the inhibition at 77 g/ha amounted to 0%. Moreover, the inhibition at 30 g/ha amounted to 25% in assay [2] (552 h, 4.5-5.3 leaf stage, 23 DAT, 30 g/ha) and 0% in assay [3] (setting [10]). For the same molecule, the inhibition at 60 g/ha stood at 10% in assay [2] (setting [8]) and 0% in assay [3] (setting [10]). Also, the inhibition at 120 g/ha in assay [2] (setting [8]) is 45%; in assay [3] (setting [10]), 0%. For the same molecule, the inhibition at 100 g/ha in assay [3] (528 h, 4.0-4.3 leaf stage, 22 DAT) is 25%; in assay [4] (528 h, 3.0-3.3 leaf stage, 22 DAT, 100 g/ha) it was 50%. In addition, the inhibition at 200 g/ha in assay [3] (576 h, 3.2-4.1 leaf stage, 24 DAT, 200 g/ha) came out at 100%. The inhibition at 25 g/ha in assay [4] (528 h, 3.0-3.3 leaf stage, 22 DAT, 25 g/ha) is 40%. Further, the inhibition at 50 g/ha in assay [4] (528 h, 3.0-3.3 leaf stage, 22 DAT) was 50%.

A word on the inhibition: it is the percentage by which the read-out fell short of the control.
